Tested on: SEM cells
Test: cell viability relative to DMSO control; higher = less cytotoxic
Conditions: 48 h
Method in brief: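 NOMO1 or SEM (500 cells/well) or P12-Ichikawa (1000 cells/well) leukemia cells were adapted for at least four passages in each medium. They were seeded in 1536-well plates (5 μl) and pin-dosed with library compounds in DMSO over an 11-point threefold series, 47 μM to 0.79 nM. CellTiter-Glo One luminescence was read after 48 h at 37°C. Viability is the per-plate percentage relative to DMSO wells, with cell-free wells as background.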

[1] = HPLM + 10% dialyzed FBS, 0.000781 µM
[2] = HPLM + 10% dialyzed FBS, 0.00234 µM
[3] = HPLM + 10% dialyzed FBS, 0.00702 µM
[4] = HPLM + 10% dialyzed FBS, 0.0211 µM
[5] = HPLM + 10% dialyzed FBS, 0.0632 µM
[6] = HPLM + 10% dialyzed FBS, 0.19 µM
[7] = HPLM + 10% dialyzed FBS, 0.569 µM
[8] = HPLM + 10% dialyzed FBS, 1.71 µM
[9] = HPLM + 10% dialyzed FBS, 5.12 µM
[10] = HPLM + 10% dialyzed FBS, 15.4 µM
[11] = HPLM + 10% dialyzed FBS, 46.1 µM
[12] = RPMI 5 mM glucose + 10% FBS, 0.000781 µM
[13] = RPMI 5 mM glucose + 10% FBS, 0.00234 µM
[14] = RPMI 5 mM glucose + 10% FBS, 0.00702 µM
[15] = RPMI 5 mM glucose + 10% FBS, 0.0211 µM
[16] = RPMI 5 mM glucose + 10% FBS, 0.0632 µM
[17] = RPMI 5 mM glucose + 10% FBS, 0.19 µM
[18] = RPMI 5 mM glucose + 10% FBS, 0.569 µM
[19] = RPMI 5 mM glucose + 10% FBS, 1.71 µM
[20] = RPMI 5 mM glucose + 10% FBS, 5.12 µM
[21] = RPMI 5 mM glucose + 10% FBS, 15.4 µM
[22] = RPMI 5 mM glucose + 10% FBS, 46.1 µM
[23] = RPMI 5 mM glucose + 10% dialyzed FBS, 0.000781 µM
[24] = RPMI 5 mM glucose + 10% dialyzed FBS, 0.00234 µM
[25] = RPMI 5 mM glucose + 10% dialyzed FBS, 0.00702 µM
[26] = RPMI 5 mM glucose + 10% dialyzed FBS, 0.0211 µM
[27] = RPMI 5 mM glucose + 10% dialyzed FBS, 0.0632 µM
[28] = RPMI 5 mM glucose + 10% dialyzed FBS, 0.19 µM
[29] = RPMI 5 mM glucose + 10% dialyzed FBS, 0.569 µM
[30] = RPMI 5 mM glucose + 10% dialyzed FBS, 1.71 µM
[31] = RPMI 5 mM glucose + 10% dialyzed FBS, 5.12 µM
[32] = RPMI 5 mM glucose + 10% dialyzed FBS, 15.4 µM
[33] = RPMI 5 mM glucose + 10% dialyzed FBS, 46.1 µM

Structure (SMILES)	cell viability [1] [%]	cell viability [2] [%]	cell viability [3] [%]	cell viability [4] [%]	cell viability [5] [%]	cell viability [6] [%]	cell viability [7] [%]	cell viability [8] [%]	cell viability [9] [%]	cell viability [10] [%]	cell viability [11] [%]	cell viability [12] [%]	cell viability [13] [%]	cell viability [14] [%]	cell viability [15] [%]	cell viability [16] [%]	cell viability [17] [%]	cell viability [18] [%]	cell viability [19] [%]	cell viability [20] [%]	cell viability [21] [%]	cell viability [22] [%]	cell viability [23] [%]	cell viability [24] [%]	cell viability [25] [%]	cell viability [26] [%]	cell viability [27] [%]	cell viability [28] [%]	cell viability [29] [%]	cell viability [30] [%]	cell viability [31] [%]	cell viability [32] [%]	cell viability [33] [%]
CCNC(=O)CCC/C=C\C[C@@H]1[C@@H](/C=C/C(O)CCc2ccccc2)[C@@H](O)C[C@@H]1O (some centres undefined)	96.2	116	100	98.8	115	104	104	108	108	91.2	87.4	95.4	112	110	98.7	118	111	117	118	111	98.2	100	89.6	117	128	107	120	109	102	106	114	107	81.3
O=C1NC(=O)/C(=C/c2ccc3nccnc3c2)S1	117	123	128	114	120	113	109	105	97	104	102	120	136	115	126	136	120	128	115	73	99.5	103											
CO[C@@H](C(=O)N1Cc2[nH]nc(NC(=O)c3ccc(N4CCN(C)CC4)cc3)c2C1)c1ccccc1	95.5	84.2	103	90.9	71.1	55.6	38.4	24.6	28.3	24.3	24.9	107	92.3	103	94.6	59.3	38.9	23.5	20.5	19.7	15	18.7	87.9	97.1	87.4	90.7	59.8	39.5	32.2	20.2	25.1	20	16.4
CC1(C)SCCN([S+](=O)([O-])c2ccc(OCC#CCO)cc2)[C@H]1C(=O)NO	97.8	96.3	109	112	104	99.6	102	89.5	91.3	86.6	80.8	129	116	115	123	109	107	105	104	106	91.4	88.1	105	109	105	103	91.1	94.3	107	90.1	78.9	74.1	69.5
CN(C)C/C=C/C(=O)Nc1ccc(C(=O)Nc2cccc(Nc3ncc(Cl)c(-c4c[nH]c5ccccc45)n3)c2)cc1	75.1	79.4	90	62.5	85.8	47.6	4.17	3.85	3.85	3.77	3.63	97.5	122	128	129	120	68	5.08	6.09	5.71	6.09	6.13	83.4	76.3	103	73.3	78.8	43.6	4.95	4.94	4.59	4.42	4.34
CCCCCNC(=N)N/N=C/c1c[nH]c2ccc(OC)cc12	112	119	114	128	108	130	115	124	106	48	31.2												111	118	115	110	117	117	130	122	99.1	56.7	36.6
NC(=O)c1cnccn1	104	116	117	106	120	120	123	125	119	122	118	108	112	133	105	116	129	127	121	119	120	119											
CCc1ccc(OCc2ccccc2C(=O)Nc2ccc3nc(C)cc(N)c3c2)cc1	75.2	102	98.9	90.2	104	117	110	109	26.6	11.3	8.33	98.5	102	98.9	99.3	112	111	122	116	109	20.7	7.66	94.4	107	91.4	107	103	114	111	102	111	22.1	7.91
CCC(C)CCCCC(=O)N[C@@H](CCN)C(=O)NC(C(=O)N[C@H](CCN)C(=O)N[C@@H]1CCNC(=O)C([C@@H](C)O)NC(=O)[C@@H](CCN)NC(=O)[C@@H](CCN)NC(=O)[C@@H](CC(C)C)NC(=O)[C@H](Cc2ccccc2)NC(=O)[C@H](CCN)NC1=O)[C@@H](C)O (some centres undefined)	81.6	85.8	94	94.3	100	92.9	76.5	112	109	110	101	104	113	109	109	107	110	90.1	108	111	118	108	87.1	90.9	93.2	86.1	107	111	49.8	103	105	102	118
c1cc(-c2cnn3cc(-c4ccc(OCCN5CCCCC5)cc4)cnc23)ccn1	69.3	58.4	94.8	34.4	32.7	31.1	27.9	96.2	88.5	8.18	30.9	103	76.7	121	63.7	51.6	43.4	34.8	103	105	40.4	23.3	91.5	60.9	99.8	45.4	31.8	24	25.9	90	78.4	42.2	23.7
CCN(CC)CCNC(=O)c1c(C)[nH]c(/C=C2\C(=O)Nc3ccc(F)cc32)c1C	48	47.3	43.4	53	41.8	13	9.03	6.26	5.73	4.36	4.22	72.7	66.3	58.1	57	34.1	10.6	9.65	6.37	5.9	3.85	4.31	52.8	42.7	42.2	44.5	27.6	9.68	9.05	6.13	5.9	3.85	3.99
CC/C=C\C[C@H]1C(=O)CC[C@@H]1CC(=O)OC	76	118	130	130	125	118	125	118	113	114	103	60.3	109	101	114	109	100	126	102	99.3	109	88.9	78	112	137	147	153	127	135	120	122	112	120
Oc1cc(-c2nc(-c3ccccc3)[nH]c2-c2ccncc2)ccc1Cl	105	115	118	110	104	122	103	104	107	100	80.3	120	114	115	117	107	111	122	116	106	111	45.2											
O=C(c1cncc(Br)c1)N1CCC(N2CCCC2)CC1	100	118	107	106	115	106	106	107	114	99.7	88.5	98.4	106	107	110	105	114	117	108	117	95.1	77.2	110	95	95	105	99	112	102	98.7	99.1	91.2	71.2
CNc1nc(-c2ccc3c(N)n[nH]c3c2)cc(N2C[C@@H](C(=O)NC3CCCCC3)CC[C@H]2C)n1	72.6	90	83.9	81.1	83.1	84.7	59.8	57.3	60.3	48.5	14.3	89.8	85.9	102	108	88.8	113	82.1	78.8	71.5	47.9	2.66	80.6	90.7	76.8	76.1	79.4	83.1	71.2	57.9	63.1	50.7	10.9
CCCOc1ccc(C(=O)OCCN(CC)CC)cc1N	85.3	105	29.3	105	104	118	122	104	108	114	97.7	94.6	110	10.1	118	115	107	114	116	105	120	96.3	80	88	23.2	104	99.3	104	95.8	98.1	106	102	85.3
